Results published in patent publication EP2439195B1, “NAPHTHALENE CARBOXAMIDE DERIVATIVES AS INHIBITORS OF PROTEIN KINASE AND HISTONE DEACETYLASE, PREPARATION METHODS AND USES THEREOF” (Shenzhen Chipscreen Biosciences, Ltd., priority 2009, dated 2010).

Tests used:
HCT-8 = assay: Tumor cell proliferation (MTS), HCT-8; format: cell-based; settings: Homo sapiens; HCT-8, 72 hours; read-out: Gl50 µM in HCT-8
Protocol: (§1) Tumor cells were trypsinized and plated into 96-well plates at 3,000 per well and incubated in complete medium with 10% FBS for 24 hours. Compounds to be tested and vehicle control were added, and the final concentration of compound is in the range of 100 nmol/L to 100 µmol/L. The compounds were incubated for 72 hours in complete medium. The MTS reagent (Promega) was added according to the instruction, incubated for 2 hours at 37°C in CO2 incubator. Then absorbance at 490nm is read using an ELISA plate reader.

human PDGFRβ = target: T1, human PDGFRβ (Homo sapiens, UniProt P09619); assay: PDGF dependent cell proliferation (MTS); format: cell-based; settings: PDGFRβ NIH-3T3 cells, PDGF BB (50ng/ml), 72 hours, serum-free medium; read-out: Gl50 nM (PDGF ligand-dependent cell proliferation)
T1 construct: expressed in transfected cells

A-498 = assay: Tumor cell proliferation (MTS), A-498; format: cell-based; settings: Homo sapiens, A498; A-498, 72 hours; read-out: Gl50 µM in A-498
Protocol: as §1

total HDAC enzyme = assay: In vitro total HDAC enzyme activity (HDAC Fluorimetric Assay/Drug Discovery Kit, HeLa cell nuclear extract); format: biochemical
Class I HDAC = assay: HDAC subtype selectivity reporter gene assay (P21 reporter, HeLa cells); format: cell-based; settings: Homo sapiens; 10µM; HeLa cells, 24 hours; read-out: Class I HDAC (P21 reporter assay) Fold Induction at 10µM
Procedure, shortened: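 HeLa cells transiently transfected with a luciferase reporter driven by a p21 promoter or response element, with a cotransfected GFP plasmid for normalisation. Compounds or DMSO added 24 h post-transfection; luciferase measured in lysates after a further 24 h.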

HUVEC cells = assay: VEGF dependent cell proliferation (MTS); format: cell-based; settings: Homo sapiens, VEGF 165 (50ng/ml), 72 hours, serum-free medium, read-out: Gl50 nM (VEGF ligand-dependent cell proliferation)
A549 = assay: Tumor cell proliferation (MTS), A549; format: cell-based; settings: Homo sapiens; A549, 72 hours; read-out: Gl50 µM in A549
Protocol: as §1

MCF-7 = assay: Tumor cell proliferation (MTS), MCF-7; format: cell-based; settings: Homo sapiens, MCF7; MCF-7, 72 hours; read-out: Gl50 µM in MCF-7
Protocol: as §1

Bel-7402 = assay: Tumor cell proliferation (MTS), Bel-7402; format: cell-based; settings: Homo sapiens; Bel-7402, 72 hours; read-out: Gl50 µM in Bel-7402
Protocol: as §1

[1] = system: human SSMC7721 liver cancer; assay: Nude mice tumor transplanted from human SSMC7721 liver cancer (Example 56); format: in vivo; settings: for TGI (%): tumor growth inhibition
Protocol: Female nu/nu mice of 18∼20g were fed by normal diet for 3 days. Then the cultured SSMC7721 human liver cancer cells were implanted into the armpit of 50 mice. […] Each group had 8 mice. One group was treated with vehicle. One group was treated with Sutent, the positive control drug. Two groups were treated with compound 33 at different concentrations. The other two groups were treated with compound 37 at different concentrations. Each group was dosed orally once a day for 30 days. […] The tumor growth inhibition of each group was calculated using the following formula: {[(the average tumor weight of control group)-(the average tumor weight of test group)]/(the average tumor weight of control group)} × 100%. [formula] The experimental results are shown in Table 10 and Figure 6. Table10

[2] = 30 mg/kg orally once a day for 30 days
[3] = 60 mg/kg orally once a day for 30 days

T1 sequence (P09619 33-1106): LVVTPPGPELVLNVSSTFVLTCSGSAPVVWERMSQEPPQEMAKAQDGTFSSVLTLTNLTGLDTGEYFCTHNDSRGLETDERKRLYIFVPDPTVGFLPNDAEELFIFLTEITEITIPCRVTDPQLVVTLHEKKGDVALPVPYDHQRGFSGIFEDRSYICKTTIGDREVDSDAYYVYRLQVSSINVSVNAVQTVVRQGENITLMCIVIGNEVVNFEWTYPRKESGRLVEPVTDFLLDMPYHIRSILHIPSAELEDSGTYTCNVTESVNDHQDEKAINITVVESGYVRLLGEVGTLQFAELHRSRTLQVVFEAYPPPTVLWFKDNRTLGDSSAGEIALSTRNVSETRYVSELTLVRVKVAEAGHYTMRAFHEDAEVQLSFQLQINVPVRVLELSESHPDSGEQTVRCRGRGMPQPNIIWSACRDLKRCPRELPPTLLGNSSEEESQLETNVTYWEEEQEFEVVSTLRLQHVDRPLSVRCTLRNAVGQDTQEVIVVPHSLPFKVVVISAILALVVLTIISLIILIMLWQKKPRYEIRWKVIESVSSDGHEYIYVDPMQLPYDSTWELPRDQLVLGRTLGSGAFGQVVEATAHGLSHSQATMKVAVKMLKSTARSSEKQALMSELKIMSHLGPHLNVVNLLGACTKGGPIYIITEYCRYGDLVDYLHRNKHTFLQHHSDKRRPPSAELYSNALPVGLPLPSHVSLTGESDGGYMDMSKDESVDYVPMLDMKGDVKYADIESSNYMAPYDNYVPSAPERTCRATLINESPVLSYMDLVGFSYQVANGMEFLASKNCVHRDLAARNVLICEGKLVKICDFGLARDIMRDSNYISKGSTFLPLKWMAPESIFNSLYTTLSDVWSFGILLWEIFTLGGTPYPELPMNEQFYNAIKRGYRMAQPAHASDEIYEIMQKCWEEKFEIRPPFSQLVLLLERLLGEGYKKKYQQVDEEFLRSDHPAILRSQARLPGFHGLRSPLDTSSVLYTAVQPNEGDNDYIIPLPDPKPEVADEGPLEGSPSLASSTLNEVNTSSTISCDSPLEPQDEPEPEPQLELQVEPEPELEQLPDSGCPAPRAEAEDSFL

| SMILES | IC50 (HCT-8) [µM] | IC50 (human PDGFRβ) [nM] | IC50 (A-498) [µM] | % inhibition of total HDAC enzyme activity at 30µM (total HDAC enzyme) [%] | fold induction at 10 µM (Class I HDAC) | IC50 (HUVEC cells) [nM] | IC50 (A549) [µM] | IC50 (MCF-7) [µM] | IC50 (Bel-7402) [µM] | Tumor weight [1, 2] [g] | Body weight (g) end [1, 2] [g] | Body weight (g) start [1, 2] [g] | TGI (%) [1, 2] [%] | Tumor weight [1, 3] [g] | Body weight (g) end [1, 3] [g] | Body weight (g) start [1, 3] [g] | TGI (%) [1, 3] [%] |
| --- | --- | --- | --- | --- | --- | --- | --- | --- | --- | --- | --- | --- | --- | --- | --- | --- | --- |
| COc1ccc2c(Oc3ccc4c(C(=O)Nc5ccccc5N)cccc4c3)ccnc2c1 [Compound 31, N-(2-aminophenyl)-6-(7-methoxyquinolin-4-yloxy)-1-naphthamide] | 6.6 | 46 | 9.5 | 10.1 | 1.6 | 5 | 17.3 | 10.2 | 30 |  |  |  |  |  |  |  |  |
| COc1ccc2c(Oc3ccc4c(C(=O)NCc5ccc(C(=O)Nc6ccccc6N)cc5)cccc4c3)ccnc2c1 [Compound 33, N-(4-((2-aminophenyl)carbamoyl)benzyl)-6-(7-methoxyquinolin-4-yloxy)-1-naphthamide] | 1.5 | 300 | 1.9 | 39.1 | 2.8 | 8 | 2.1 | 2 | 2.8 | 1.63 ± 0.47 | 24.0 ± 1.7 | 20.8 ± 0.5 | 27.8 | 1.48 ± 0.89 | 25.4 ± 2.8 | 21.4 ± 1.3 | 34.4 |
